Values quoted from earlier work, collected in patent US8658200B2, “Flavoring of drug-containing chewing gums” (McNeil-PPC, Inc., priority 2005, dated 2014).

System: adult

In the case of `CN1CCCC1c1cccnc1` (stereo not shown) [nicotine, 3-(1-methyl-2-pyrrolidinyl)-pyridine], the “amount of nicotine able to kill an adult” value is given as “Approximately 40 milligrams”.
